Activity and inhibition data for three compounds are collected here from ChEMBL document CHEMBL5335818, “A MassQL-Integrated Molecular Networking Approach for the Discovery and Substructure Annotation of Bioactive Cyclic Peptides” (J Nat Prod, 2024).

Calls of active or inactive are those of the source. The rule behind the calls is not given here.

For assay [1], the target named is Vasopressin V1a receptor (Homo sapiens) (UniProt P37288). Briefly: Antagonist activity at V1A receptor (unknown origin) assessed as reduction in AVP-induced V1A receptor signaling. It is filed as functional.
Chain of Vasopressin V1a receptor (Homo sapiens) (P37288 whole entry, looked up): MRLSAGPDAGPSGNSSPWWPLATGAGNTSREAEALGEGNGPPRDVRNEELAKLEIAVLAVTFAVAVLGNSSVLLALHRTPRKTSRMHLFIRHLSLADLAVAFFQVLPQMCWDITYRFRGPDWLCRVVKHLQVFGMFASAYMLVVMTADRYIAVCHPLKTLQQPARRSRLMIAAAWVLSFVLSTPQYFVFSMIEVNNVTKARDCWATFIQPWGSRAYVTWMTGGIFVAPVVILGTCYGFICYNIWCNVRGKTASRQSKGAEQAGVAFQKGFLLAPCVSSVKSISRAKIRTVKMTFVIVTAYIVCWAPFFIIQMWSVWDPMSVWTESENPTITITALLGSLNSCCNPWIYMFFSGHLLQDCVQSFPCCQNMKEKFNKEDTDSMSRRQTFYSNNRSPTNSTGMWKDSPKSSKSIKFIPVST
Assay [2] has the same target. As to the kind of experiment: Activation of endogenous V1A receptor signaling in HEK293 cells at 0.1 to 31.6 uM incubated for 16 mins by label-free DMR assay. It is filed as functional, cell-based. Particulars: dose 0.1-31.6 µM.
Assay [3] has the same target. As to the kind of experiment: Activation of V1A receptor (unknown origin) mediated signaling transfected in HEK293 cells at 0.1 to 31.6 uM incubated for 16 mins by label-free DMR assay. Particulars: dose 0.1-31.6 µM. The format is functional, cell-based.
Assay [4] has the same target. Briefly: Antagonist activity at V1A receptor (unknown origin) transfected in HEK293 cells assessed as inhibition of AVP-induced cell activation at 1 to 31.6 uM incubated for 16 mins by label-free DMR assay. The settings on record: filed as antagonist, dose 1-31.6 µM. The format is functional, cell-based.
Assay [5] has the same target. As to the kind of experiment: Antagonist activity at V1A receptor (unknown origin) transfected in HEK293 cells assessed as inhibition of AVP-induced cell activation at 31.6 uM incubated for 16 mins by label-free DMR assay relative to control. The format is functional, cell-based.
For assay [6], the target named is Muscarinic acetylcholine receptor M3 (Homo sapiens) (UniProt P20309). As to the kind of experiment: Antagonist activity at endogenous muscarinic M3 receptor in HEK293 cells assessed as inhibition of carbachol-induced cell activation at 1 to 31.6 uM incubated for 16 mins by label-free DMR assay. The settings on record: dose 1-31.6 µM. The format is functional, cell-based.
Chain of Muscarinic acetylcholine receptor M3 (Homo sapiens) (P20309 whole entry, looked up): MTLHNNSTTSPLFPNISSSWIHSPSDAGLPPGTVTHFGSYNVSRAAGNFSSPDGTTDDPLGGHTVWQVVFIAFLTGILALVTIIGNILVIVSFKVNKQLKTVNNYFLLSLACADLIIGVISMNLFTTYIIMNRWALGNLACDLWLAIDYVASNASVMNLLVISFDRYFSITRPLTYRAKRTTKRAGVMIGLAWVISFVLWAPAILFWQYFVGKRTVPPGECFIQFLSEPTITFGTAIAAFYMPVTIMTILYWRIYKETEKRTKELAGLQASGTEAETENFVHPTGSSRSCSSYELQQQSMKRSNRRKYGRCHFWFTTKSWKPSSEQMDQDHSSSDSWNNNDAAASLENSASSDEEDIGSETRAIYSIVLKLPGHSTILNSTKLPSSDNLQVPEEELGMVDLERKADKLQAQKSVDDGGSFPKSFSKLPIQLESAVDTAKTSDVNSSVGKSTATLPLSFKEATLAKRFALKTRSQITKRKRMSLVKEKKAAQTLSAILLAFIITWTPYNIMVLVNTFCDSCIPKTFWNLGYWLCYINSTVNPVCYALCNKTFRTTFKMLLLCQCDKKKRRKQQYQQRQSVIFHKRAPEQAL

Take `CC(C)[C@@H]1NC(=O)[C@@H]2CCCN2C(=O)[C@H](Cc2ccoc2)NC(=O)[C@H](Cc2ccoc2)N(C)C1=O`: the result in assay [1] (filed as antagonist) and in assay [4] was Active. Also, the result in assay [2], in assay [3] and in assay [6] was inactive. Also, in assay [5], the inhibition amounted to 22%.
With `CC(C)C[C@@H]1NC(=O)[C@H](Cc2ccoc2)N(C)C(=O)[C@H](C(C)C)NC(=O)[C@H](Cc2ccoc2)N(C)C1=O`, the result in assay [1] was inactive.
Still for that read-out and setting: next, `CC(C)C[C@@H]1NC(=O)[C@H](Cc2ccoc2)N(C)C(=O)[C@H](C(C)C)NC(=O)[C@@H]2CCCN2C1=O`: “inactive”.
